From patent US5359135A, “Triasulfurone compounds” (priority 1990, dated 1994) come the findings set out here.

Molecules are shown by their SMILES. Where only a bound is given, the exact number is not on record here.

Type in all cases: binding, mouse (Balb/c)
Holding throughout (settings): for Cross-reactivity: (triasulfurone conc. for 50% inhibition/analog conc. for 50% inhibition) × 100

One test relates to MAb 4134-40-1. Description: competitive ELISA, triasulfurone and analogs with MAb 4134-40-1 (Table 1). The source says: (§1) As defined within the context of this invention, the percentage of cross-reactivity is represented by the following equation: [triasulfurone concentration for 50% inhibition (I50)/concentration of the triasulfurone analogs for 50% inhibition (I50)]×100.
(§2) The I50 value can be determined, for example, by means of a competitive ELISA assay (see Example 8). In that case the I50 value corresponds, for example, to the antigen concentration that leads to a 50% inhibition of the binding of the antibody to the carrier-bound antigen.
(§3) The detection of triasulfurone is effected by means of a two-step competitive ELISA test.
(§4) BSA-conjugated hapten, prepared in accordance with Example 1.3.1 or 1.3.2, in a 50mM sodium carbonate buffer (pH 9.6) (200 ng of BSA-conjugated hapten/100 μl of sodium carbonate buffer) is first of all adsorbed on microtitre plates (for example Dynatech, type M 129A) and incubated overnight at a temperature of 4° C. The plates are then washed five times with PBS buffer enriched with 0.1% (v/v) polysorbate 20 (Tween 20) (PBS Tween).
(§5) The remaining free binding sites of the solid carder material are then blocked by the addition of PBS-BSA in the form of a 1% (w/v) solution. After incubation for two hours at 22° C. the plates are washed again with PBS Tween (0.1%).
(§6) 50 μl of the supernatant of the previously cloned hybridoma cells (in a dilution of 1:2000 or 1:4000) or 50 μl of the previously purified monoclonal antibodies (40-120 ng/ml) are incubated a) with 950 μl of a standard solution containing an increasing amount of triasulfurone or of triasulfurone analogs, b) with triasulfurone-containing water samples or c) with triasulfurone-containing soil extracts. [All dilutions are carried out in PBS Tween (0.1%)].
(§7) After an incubation period of 1 hour at room temperature (22° C.), 200 μl of the antigen/antibody mixture are added to each well in the microtitre plate and the whole batch is incubated for a further one hour. The wells are then washed five times with PBS Tween (0.1%) and charged with 100 μl/well of goat anti-mouse IgG antibody that is conjugated to alkaline phosphatase (dilution 1:1500), and incubated for a period of 1.5 hours.
(§8) After washing again, 150 μl/well of the substrate p-nitrophenyl phosphate dissolved in 1 mg/ml of diethanolamine buffer ([…], pH 9.8, enriched with 0.5 mM MgCl2 ×6H2 O) are added to the wells.
(§9) The intensity of the colour reaction that has occurred is determined at a wavelength of 405 nm. […] All the samples are determined in triplicate.
(§10) In order to determine the amount of triasulfurone present in a sample, first of all a calibration curve is produced (FIG. 1), B/Bo×100 being plotted against the concentration of inhibitor. (Bo represents the absorption capacity measured without the addition of a triasulfurone inhibitor to the antibody, and B is the absorption capacity when triasulfurone inhibitors at various concentrations are added). The I50 value indicates the concentration of the antigen at which the binding of antibody to the solid phase is inhibited by 50%. The I50 value is determined using an ENZFITTER (Leatherbarrow, Elsevier-Biosoft) curve-calculation program based on a four-parameter logistical curve (Raab GM, 1983) and specially adapted to the prevailing conditions. The quantitative determination of triasulfurone in soil or water samples within the context of ELISA is also carried out using the ENZFITTER program, the adaptation of the curve being based on standards that run on any microtitre plate.
Background: In an ELISA, binding on a coated surface is turned into a signal by an enzyme label.

The subject of the next test is MAb 4149-1-1. Description: competitive ELISA, triasulfurone and analogs with MAb 4149-1-1 (Table 1).
Source text: as §1, §2, §3, §4, §5, §6, §7, §8, §9, §10

A further test deals with MAb 4147-19-4. Description: competitive ELISA, triasulfurone and analogs with MAb 4147-19-4 (Table 1).
Source text: as §1, §2, §3, §4, §5, §6, §7, §8, §9, §10

Regarding `COc1nc(C)nc(NC(=O)NS(=O)(=O)c2cc(O)ccc2OCCCl)n1` [A], the “I50 (inhibitor concentration that reduces the ELISA signal by 50% in comparison to the control)” value with MAb 4134-40-1 stood at 550 ng/mL; in the test on MAb 4149-1-1, 0.16 ng/mL; with MAb 4147-19-4, 21.4 ng/mL. In addition, the Cross-reactivity in the test with MAb 4134-40-1 was found to be 1.3%; in the test with MAb 4149-1-1, 31.3%; in the test on MAb 4147-19-4, 0.4%.

For the compound `COc1nc(C)nc(NC(=O)NS(=O)(=O)c2ccc(O)cc2OCCCl)n1` [B], the figures for the “I50 (inhibitor concentration that reduces the ELISA signal by 50% in comparison to the control)” value with MAb 4134-40-1, in the test on MAb 4149-1-1 and with MAb 4147-19-4 were > 1000 ng/mL, 0.04 ng/mL and 85 ng/mL, respectively. In addition, the values for the Cross-reactivity with MAb 4134-40-1, with MAb 4149-1-1 and in the test on MAb 4147-19-4 were < 0.7%, 125.0% and 0.1%, respectively.

With `NS(=O)(=O)c1ccccc1OCCCl` [C], the entries for the “I50 (inhibitor concentration that reduces the ELISA signal by 50% in comparison to the control)” value with MAb 4134-40-1, with MAb 4149-1-1 and in the test with MAb 4147-19-4 were > 1000 ng/mL, 1000 ng/mL and > 1000 ng/mL, respectively. The Cross-reactivity with MAb 4134-40-1 is < 0.7%; with MAb 4149-1-1, < 0.01%; with MAb 4147-19-4, < 0.01%.

With `NS(=O)(=O)c1ccccc1OCCO` [D], the “I50 (inhibitor concentration that reduces the ELISA signal by 50% in comparison to the control)” value in the test on MAb 4134-40-1, in the test on MAb 4149-1-1 and with MAb 4147-19-4 was > 1000 ng/mL throughout. Moreover, the Cross-reactivity is on record as < 0.7% in the test on MAb 4134-40-1, < 0.01% in the test with MAb 4149-1-1 and < 0.01% with MAb 4147-19-4.

`NS(=O)(=O)c1cc(O)ccc1OCCCl` [E]: the “I50 (inhibitor concentration that reduces the ELISA signal by 50% in comparison to the control)” value with MAb 4134-40-1, in the test with MAb 4149-1-1 and with MAb 4147-19-4 was > 1000 ng/mL in each case. The Cross-reactivity was < 0.7% with MAb 4134-40-1, < 0.01% with MAb 4149-1-1 and < 0.01% with MAb 4147-19-4.

Consider `COc1nc(C)nc(NC(N)=O)n1` [F], for which the “I50 (inhibitor concentration that reduces the ELISA signal by 50% in comparison to the control)” value in the test on MAb 4134-40-1, with MAb 4149-1-1 and in the test on MAb 4147-19-4 was > 1000 ng/mL each time. Besides, the Cross-reactivity in the test on MAb 4134-40-1 is < 0.7%; in the test on MAb 4149-1-1 it was < 0.01%; in the test on MAb 4147-19-4, < 0.01%.

In the case of `COc1nc(C)nc(NC(=O)NS(=O)(=O)c2ccccc2SCCF)n1` [H], the “I50 (inhibitor concentration that reduces the ELISA signal by 50% in comparison to the control)” value with MAb 4134-40-1 came to 30 ng/mL; in the test on MAb 4149-1-1 it was 16.2 ng/mL; with MAb 4147-19-4 it was 0.13 ng/mL. For the same compound, the Cross-reactivity with MAb 4134-40-1 was found to be 24.0%; in the test on MAb 4149-1-1 it was 0.3%; with MAb 4147-19-4, 69.2%.

For the compound `COC(=O)c1ccccc1S(=O)(=O)NC(=O)Nc1nc(OC(F)F)cc(OC(F)F)n1` [I, primisulfurone], the “I50 (inhibitor concentration that reduces the ELISA signal by 50% in comparison to the control)” value with MAb 4134-40-1, with MAb 4149-1-1 and in the test with MAb 4147-19-4 was > 1000 ng/mL throughout. For the same compound, the values for the Cross-reactivity with MAb 4134-40-1, in the test with MAb 4149-1-1 and in the test with MAb 4147-19-4 were < 0.7%, < 0.01% and < 0.01%, respectively.

Take `COC(=O)c1ccccc1S(=O)(=O)NC(=O)Nc1nc(C)cc(C)n1` [J, sulfometurone-methyl]: the “I50 (inhibitor concentration that reduces the ELISA signal by 50% in comparison to the control)” value with MAb 4134-40-1, with MAb 4149-1-1 and in the test with MAb 4147-19-4 was > 1000 ng/mL each time. For the same compound, the Cross-reactivity in the test with MAb 4134-40-1 was < 0.7%; with MAb 4149-1-1 it was < 0.01%; in the test with MAb 4147-19-4 it was < 0.01%.

For `COC(=O)c1ccccc1S(=O)(=O)NC(=O)N(C)c1nc(C)nc(OC)n1` [K, tribenurone-methyl], the “I50 (inhibitor concentration that reduces the ELISA signal by 50% in comparison to the control)” value in the test on MAb 4134-40-1, in the test with MAb 4149-1-1 and in the test on MAb 4147-19-4 was > 1000 ng/mL throughout. The Cross-reactivity is given as < 0.7% in the test on MAb 4134-40-1, < 0.01% in the test on MAb 4149-1-1 and < 0.01% with MAb 4147-19-4.

`COC(=O)c1sccc1S(=O)(=O)NC(=O)Nc1nc(C)nc(OC)n1` [L, thiameturone-methyl]: the “I50 (inhibitor concentration that reduces the ELISA signal by 50% in comparison to the control)” value in the test on MAb 4134-40-1 is > 1000 ng/mL; with MAb 4149-1-1, > 1000 ng/mL; in the test with MAb 4147-19-4, 14.2 ng/mL. Further, the Cross-reactivity in the test with MAb 4134-40-1 was < 0.7%; in the test on MAb 4149-1-1, < 0.01%; in the test on MAb 4147-19-4, 0.6%.

For the compound `COc1nc(C)nc(NC(=O)NS(=O)(=O)c2ccccc2Cl)n1` [M, chlorosulfurone], the “I50 (inhibitor concentration that reduces the ELISA signal by 50% in comparison to the control)” value in the test with MAb 4134-40-1 is > 1000 ng/mL; in the test on MAb 4149-1-1, 420 ng/mL; with MAb 4147-19-4, 14.3 ng/mL. The Cross-reactivity was < 0.7% in the test on MAb 4134-40-1, 0.01% with MAb 4149-1-1 and 0.6% with MAb 4147-19-4.

In the case of `COC(=O)c1ccccc1CS(=O)(=O)NC(=O)Nc1nc(OC)cc(OC)n1` [N, bensulfurone-methyl], the “I50 (inhibitor concentration that reduces the ELISA signal by 50% in comparison to the control)” value in the test on MAb 4134-40-1, in the test on MAb 4149-1-1 and in the test on MAb 4147-19-4 was > 1000 ng/mL each time. In addition, the Cross-reactivity was < 0.7% in the test with MAb 4134-40-1, < 0.01% in the test with MAb 4149-1-1 and < 0.01% in the test on MAb 4147-19-4.

With `COC(=O)c1ccccc1S(=O)(=O)NC(=O)Nc1nc(C)nc(OC)n1` [O, methsulfurone-methyl], the “I50 (inhibitor concentration that reduces the ELISA signal by 50% in comparison to the control)” value with MAb 4134-40-1 is > 1000 ng/mL; with MAb 4149-1-1 it was 600 ng/mL; with MAb 4147-19-4, 81.5 ng/mL. Besides, the values for the Cross-reactivity in the test with MAb 4134-40-1, with MAb 4149-1-1 and with MAb 4147-19-4 were < 0.7%, < 0.01% and 0.1%, respectively.

For `COc1cc(OC)nc(NC(=O)NS(=O)(=O)c2ncccc2C(=O)N(C)C)n1` [P, nicosulfurone-methyl], the “I50 (inhibitor concentration that reduces the ELISA signal by 50% in comparison to the control)” value with MAb 4134-40-1, in the test with MAb 4149-1-1 and with MAb 4147-19-4 was > 1000 ng/mL each time. Besides, the Cross-reactivity was < 0.7% in the test on MAb 4134-40-1, < 0.01% with MAb 4149-1-1 and < 0.01% with MAb 4147-19-4.
